Measured values from ChEMBL document CHEMBL5291721, “A preclinical secondary pharmacology resource illuminates target-adverse drug reaction associations of marketed drugs” (Nat Commun, 2023).

Tests used:
[1] = molecular target: Vasopressin V1a receptor (Homo sapiens, UniProt P37288)
[2] = molecular target: T1, Gastrin/cholecystokinin type B receptor (Homo sapiens, UniProt P32239)
T1 sequence (P32239 whole entry): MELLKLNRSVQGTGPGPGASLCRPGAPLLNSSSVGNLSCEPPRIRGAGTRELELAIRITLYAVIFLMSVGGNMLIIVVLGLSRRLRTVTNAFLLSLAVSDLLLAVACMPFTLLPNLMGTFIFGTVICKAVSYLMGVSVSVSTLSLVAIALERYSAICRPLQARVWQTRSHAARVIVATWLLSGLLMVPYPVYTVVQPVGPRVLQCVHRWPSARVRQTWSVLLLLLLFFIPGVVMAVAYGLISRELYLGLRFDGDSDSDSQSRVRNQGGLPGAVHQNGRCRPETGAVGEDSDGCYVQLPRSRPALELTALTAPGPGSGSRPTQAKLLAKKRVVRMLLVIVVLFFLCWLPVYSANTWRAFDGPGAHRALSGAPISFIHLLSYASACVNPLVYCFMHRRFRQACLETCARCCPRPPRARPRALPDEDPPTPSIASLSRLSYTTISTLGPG

[3] = molecular target: T2, Muscarinic acetylcholine receptor M2 (Homo sapiens, UniProt P08172); assay type: functional, cell-based
T2 sequence (P08172 whole entry): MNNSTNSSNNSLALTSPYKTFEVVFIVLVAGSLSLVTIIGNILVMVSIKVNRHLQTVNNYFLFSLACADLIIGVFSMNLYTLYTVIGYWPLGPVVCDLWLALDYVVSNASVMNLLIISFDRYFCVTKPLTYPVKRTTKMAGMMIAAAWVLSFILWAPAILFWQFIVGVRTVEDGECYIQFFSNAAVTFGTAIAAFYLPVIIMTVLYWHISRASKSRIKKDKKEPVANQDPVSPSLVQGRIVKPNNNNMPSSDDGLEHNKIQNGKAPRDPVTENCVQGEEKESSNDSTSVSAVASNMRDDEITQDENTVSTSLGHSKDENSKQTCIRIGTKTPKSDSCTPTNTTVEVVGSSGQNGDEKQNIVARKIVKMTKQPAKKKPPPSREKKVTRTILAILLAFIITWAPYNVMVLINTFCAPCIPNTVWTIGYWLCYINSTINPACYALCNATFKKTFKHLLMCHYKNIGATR

[4] = molecular target: T3, Endothelin-1 receptor (Homo sapiens, UniProt P25101)
T3 sequence (P25101 whole entry): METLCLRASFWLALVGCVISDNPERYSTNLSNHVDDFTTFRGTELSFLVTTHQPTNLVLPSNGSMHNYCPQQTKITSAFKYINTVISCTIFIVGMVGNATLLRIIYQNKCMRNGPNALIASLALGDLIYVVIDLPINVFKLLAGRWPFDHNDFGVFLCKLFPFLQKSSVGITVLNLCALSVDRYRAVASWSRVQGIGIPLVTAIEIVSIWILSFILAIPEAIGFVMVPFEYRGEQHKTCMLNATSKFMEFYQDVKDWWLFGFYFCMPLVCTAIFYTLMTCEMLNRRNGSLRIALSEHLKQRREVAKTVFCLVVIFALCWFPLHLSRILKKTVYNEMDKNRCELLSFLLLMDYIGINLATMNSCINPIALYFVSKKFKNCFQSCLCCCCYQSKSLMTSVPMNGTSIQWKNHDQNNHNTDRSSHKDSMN

[5] = molecular target: T4, Estrogen receptor (Homo sapiens, UniProt P03372)
T4 sequence (P03372 whole entry): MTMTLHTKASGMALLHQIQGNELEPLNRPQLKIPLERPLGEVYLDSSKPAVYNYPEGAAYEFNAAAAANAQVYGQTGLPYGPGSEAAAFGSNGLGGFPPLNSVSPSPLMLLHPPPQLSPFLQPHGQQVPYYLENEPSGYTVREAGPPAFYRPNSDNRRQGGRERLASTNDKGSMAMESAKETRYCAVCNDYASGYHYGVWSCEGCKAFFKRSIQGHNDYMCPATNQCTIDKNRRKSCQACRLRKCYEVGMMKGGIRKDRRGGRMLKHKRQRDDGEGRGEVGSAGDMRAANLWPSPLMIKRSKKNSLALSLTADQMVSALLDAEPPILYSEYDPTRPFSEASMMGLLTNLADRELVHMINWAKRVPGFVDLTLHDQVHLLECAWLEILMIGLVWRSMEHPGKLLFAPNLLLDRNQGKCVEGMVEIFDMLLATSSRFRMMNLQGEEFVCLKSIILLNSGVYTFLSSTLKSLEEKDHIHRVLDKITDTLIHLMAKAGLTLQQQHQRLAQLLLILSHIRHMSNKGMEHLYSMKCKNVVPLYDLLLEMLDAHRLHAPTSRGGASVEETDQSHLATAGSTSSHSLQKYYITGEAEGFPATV

[6] = molecular target: T5, Corticotropin-releasing factor receptor 2 (Homo sapiens, UniProt Q13324)
T5 sequence (Q13324 whole entry): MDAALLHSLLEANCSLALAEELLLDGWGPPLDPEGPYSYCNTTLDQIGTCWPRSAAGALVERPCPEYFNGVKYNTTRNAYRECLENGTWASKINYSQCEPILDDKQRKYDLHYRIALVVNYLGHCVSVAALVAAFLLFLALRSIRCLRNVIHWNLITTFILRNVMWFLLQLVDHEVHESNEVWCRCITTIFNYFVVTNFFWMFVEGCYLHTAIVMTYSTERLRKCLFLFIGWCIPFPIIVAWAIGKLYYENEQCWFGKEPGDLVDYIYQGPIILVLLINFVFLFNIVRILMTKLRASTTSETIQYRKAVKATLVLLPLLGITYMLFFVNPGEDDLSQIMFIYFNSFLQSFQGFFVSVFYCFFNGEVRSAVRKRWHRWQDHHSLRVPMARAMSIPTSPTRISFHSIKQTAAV

[7] = molecular target: T6, Gastric inhibitory polypeptide receptor (Homo sapiens, UniProt P48546)
T6 sequence (P48546 whole entry): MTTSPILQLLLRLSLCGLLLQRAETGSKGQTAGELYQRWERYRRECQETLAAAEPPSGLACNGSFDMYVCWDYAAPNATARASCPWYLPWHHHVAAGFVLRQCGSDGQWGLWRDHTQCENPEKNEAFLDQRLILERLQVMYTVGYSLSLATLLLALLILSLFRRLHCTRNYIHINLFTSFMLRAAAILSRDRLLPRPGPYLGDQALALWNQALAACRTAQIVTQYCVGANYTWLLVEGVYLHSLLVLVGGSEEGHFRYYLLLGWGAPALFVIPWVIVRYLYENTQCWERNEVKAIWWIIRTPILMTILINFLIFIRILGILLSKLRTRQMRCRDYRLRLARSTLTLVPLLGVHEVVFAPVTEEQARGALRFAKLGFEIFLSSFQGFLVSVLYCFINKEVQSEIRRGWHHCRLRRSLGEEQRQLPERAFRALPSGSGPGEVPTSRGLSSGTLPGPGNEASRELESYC
Further: assay procedure not described here.

Sequence of Vasopressin V1a receptor (P37288 whole entry): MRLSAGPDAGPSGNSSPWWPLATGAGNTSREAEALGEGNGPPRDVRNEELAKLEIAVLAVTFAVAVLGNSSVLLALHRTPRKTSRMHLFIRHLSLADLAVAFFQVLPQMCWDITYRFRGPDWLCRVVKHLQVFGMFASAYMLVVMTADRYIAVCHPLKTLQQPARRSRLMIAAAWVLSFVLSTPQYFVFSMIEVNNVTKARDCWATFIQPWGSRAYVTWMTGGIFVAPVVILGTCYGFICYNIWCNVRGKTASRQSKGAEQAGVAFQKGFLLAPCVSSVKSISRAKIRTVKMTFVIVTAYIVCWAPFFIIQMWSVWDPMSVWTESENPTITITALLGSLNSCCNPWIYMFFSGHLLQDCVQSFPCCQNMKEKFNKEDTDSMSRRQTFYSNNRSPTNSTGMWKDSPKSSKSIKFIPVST

SMILES	AC50 [1] [µM]	AC50 [2] [µM]	AC50 [3] [µM]	AC50 [4] [µM]	AC50 [5] [µM]	AC50 [6] [µM]	AC50 [7] [µM]
CC(=O)N[C@@H](CS)C(=O)O [ACETYLCYSTEINE]	> 30	> 30	> 30	> 30	> 30	–	–
C=CCNc1nc(NCC=C)nc(N2CCN(C(c3ccc(F)cc3)c3ccc(F)cc3)CC2)n1 [ALMITRINE]	> 30	> 30	> 30	> 30	> 30	–	–
CC(C)COCC(CN(Cc1ccccc1)c1ccccc1)N1CCCC1 (centres undefined) [BEPRIDIL]	> 30	> 30	> 30	> 30	> 30	> 30	> 30
C/N=C(\NC)NCc1ccccc1 [BETHANIDINE]	> 30	> 30	> 30	> 30	> 30	–	–
CCC(C)C1(CC)C(=O)NC(=O)NC1=O (centres undefined) [BUTABARBITAL]	> 30	> 30	> 30	> 30	> 30	–	–
COCC1=C(C(=O)O)N2C(=O)[C@@H](NC(=O)/C(=N\OC)c3csc(N)n3)[C@H]2SC1 [CEFPODOXIME]	> 30	> 30	> 30	> 30	> 30	–	–
O=C(O)c1cn(C2CC2)c2cc(N3CCNCC3)c(F)cc2c1=O [CIPROFLOXACIN]	> 10	> 30	–	> 30	> 30	> 30	> 30
COc1cc(N)c(Cl)cc1C(=O)NC1CCN(Cc2ccccc2)CC1 [CLEBOPRIDE]	> 30	> 30	> 30	> 30	> 30	–	–
CC(CCc1ccc(O)cc1)NCCc1ccc(O)c(O)c1 (centres undefined) [DOBUTAMINE]	> 30	> 30	> 30	> 30	> 30	> 30	> 30
C[C@]12CCC(=O)C(O)=C1CC[C@@H]1[C@@H]2CC[C@]2(C)C(=O)CC[C@@H]12 [FORMESTANE]	> 30	> 30	> 30	> 30	> 30	–	–
C[C@]12CC[C@@H]3c4ccc(O)cc4C[C@@H](CCCCCCCCC[S+]([O-])CCCC(F)(F)C(F)(F)F)[C@H]3[C@@H]1CC[C@@H]2O (some centres undefined) [FULVESTRANT]	> 30	> 30	> 30	> 30	–	–	–
Cc1cnc(C(=O)NCCc2ccc(S(=O)(=O)NC(=O)NC3CCCCC3)cc2)cn1 [GLIPIZIDE]	> 10	> 30	–	> 30	> 30	> 30	> 30
CC(C)NCC(O)c1ccc(O)c(O)c1 (centres undefined) [ISOPROTERENOL]	> 10	> 30	> 10	> 30	–	> 30	> 30
Oc1ccc2c(c1)CC[C@H](c1ccccc1)[C@@H]2c1ccc(OCCN2CCCC2)cc1 [LASOFOXIFENE]	> 30	> 3	–	> 30	–	–	–
CN1CCN(C2=Nc3ccccc3Oc3ccc(Cl)cc32)CC1 [LOXAPINE]	> 10	> 30	–	> 30	> 30	> 30	> 30
CC(C(=O)O)c1ccc(CC2CCCC2=O)cc1 (centres undefined) [LOXOPROFEN]	–	> 30	> 30	> 30	> 30	–	–
OC1(c2ccc(Cl)cc2)c2ccccc2C2=NCCN21 (centres undefined) [MAZINDOL]	> 30	> 30	> 30	> 30	> 30	> 30	> 30
CN(C)CCCNc1c2ccccc2nc2cccc([N+](=O)[O-])c12 [NITRACRINE]	> 30	> 30	16	> 30	> 30	–	–
C#C[C@]1(OC(C)=O)CC[C@H]2[C@@H]3CCC4=C/C(=N/O)CC[C@@H]4[C@H]3CC[C@@]21CC [NORGESTIMATE]	> 30	> 30	> 30	> 30	> 30	–	–
CC(N)C(O)c1ccccc1 (centres undefined) [PHENYLPROPANOLAMINE]	> 30	> 30	> 10	> 30	–	> 30	> 30
Clc1ccc2c(N3CCN(CCCN4CCN(c5ccnc6cc(Cl)ccc56)CC4)CC3)ccnc2c1 [PIPERAQUINE]	> 30	> 30	> 30	> 30	> 30	–	–
CC1(C)S[C@@H]2[C@H](NC(=O)[C@H](N)c3ccccc3)C(=O)N2[C@H]1C(=O)OCOC(=O)[C@@H]1N2C(=O)C[C@H]2S(=O)(=O)C1(C)C [SULTAMICILLIN]	> 30	> 30	> 30	> 30	> 30	–	–
Cc1cccc(N2CC(CO)OC2=O)c1 (centres undefined) [TOLOXATONE]	> 30	> 30	> 30	> 30	–	–	–
CCC(C)C(CC)C(N)=O (centres undefined) [VALNOCTAMIDE]	> 30	> 30	> 30	> 30	> 30	–	–
CCOC(=O)C1=C[C@]2(CC)CCCN3CCc4c(n1c1ccccc41)[C@@H]32 [VINPOCETINE]	> 30	> 30	–	> 30	–	–	–
Cc1cc(C(C)(C)C)cc(C)c1CC1=NCCN1 [XYLOMETAZOLINE]	> 30	> 30	12.1	> 30	> 30	–	–
